Data reported in patent publication US8901295B2 (Institut National de la Sante et de la Recherche Medicale …, priority 2009, dated 2014).

How the values were obtained:
Cyclophilin B (CypB) = Cyclophilin B (CypB) (Homo sapiens (Human), UniProt P23284); assay: Cyclophilin PPIase enzymatic assay (chymotrypsin coupled), CypB; type: biochemical; conditions: for Inhibition (%): activity test at 100 μM on CypB
Experimental: (§1) Cyclophilin A, B protein carrying a hexahistidine tag (His-Tag) at the C-terminus, were expressed in Escherichia coli and purified. Briefly, cultures of C41(DE3) cells were grown at 37° C. for ˜1 h until the culture reached an optical density of 0.6 at 600 nm, and induced with 1 mM isopropyl β-D-thiogalactoside for 4 h at 37° C. or overnight at 22° C. for cylophilin A and cyclophilin B, respectively. Cell pellets (1 L) were resuspended in a lysis buffer (20 mM NaH2PO4 (pH 7.8), 300 mM NaCl, 7 mM β-mercaptoethanol, 1 mg/ml lysozyme, 0.1 U/μl Desoxyribonuclease and complete protease inhibitor tablets (Roche)). The sonicated cell lysates were clarified by centrifugation at 10 000 g for 45 min at 4° C., chromatographed on a Ni-NTA column and washed with buffer: (20 mM NaH2PO4 (pH7.8), 300 mM NaCl, 50 mM imidazole, 7 mM β-mercaptoethanol, 10% glycerol). The bound protein was eluted in 1 ml fractions with buffer: (20 mM NaH2PO4 (pH7.8), 300 mM NaCl, 250 mM imidazole, 7 mM β-mercaptoethanol, 10% glycerol) and monitored by the Bradford colorimetric assay. The purity of each cyclophilin was determined by Coomassie-stained SDS-PAGE analysis.
(§2) The reaction was initiated by adding 20 μL of 3.2 mM peptide substrate (Suc-Ala-Ala-cis-Pro-Phe-pNA) in LiCl/TFE solution with rapid inversion. […] The final concentration of LiCl in the assay was 20 mM; TFE was present at a concentration of 4% (v/v). Absorbance readings were collected every 1 s by spectrophotometer. The inhibition assays of compounds were performed in the same manner as mentioned above. A 5 μL aliquot of the compounds in DMSO was added to the cyclophilin solution in the assay buffer. The assay was started by the addition of the substrate. Cyclosporine A was used as control in all measurement. The percentage inhibition of cyclophilin PPiase activity were calculated from slopes and values obtained represent an average of at least two independent measurements.

Cyclophilin A (CypA) = Cyclophilin A (CypA) (Homo sapiens (Human), UniProt P62937); assay: Cyclophilin PPIase enzymatic assay (chymotrypsin coupled), CypA; type: biochemical; conditions: activity test at 100 μM on CypA; read-out: Inhibition (%)
Sequence of Cyclophilin A (CypA) (P62937 whole entry): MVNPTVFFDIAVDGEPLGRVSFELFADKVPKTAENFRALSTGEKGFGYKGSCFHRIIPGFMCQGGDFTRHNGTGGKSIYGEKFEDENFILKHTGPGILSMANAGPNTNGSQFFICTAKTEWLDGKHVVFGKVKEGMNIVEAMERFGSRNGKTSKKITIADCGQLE
Experimental: as §1, §2

Sequence of Cyclophilin B (CypB) (P23284 34-216): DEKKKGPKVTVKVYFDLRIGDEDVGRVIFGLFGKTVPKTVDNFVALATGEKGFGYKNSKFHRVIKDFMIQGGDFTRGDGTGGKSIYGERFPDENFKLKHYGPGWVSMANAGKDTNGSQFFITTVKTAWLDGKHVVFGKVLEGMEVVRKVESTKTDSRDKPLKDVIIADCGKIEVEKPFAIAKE

| Compound | Inhibition (%) (Cyclophilin B (CypB)) | inhibition at 100 µM (Cyclophilin B (CypB)) | also measured |
| --- | --- | --- | --- |
| CC(C)N(Cc1cccc2c1OCO2)C(=O)CNC(=O)NCc1ccc(N)nc1 [Compound F590, 1-(((6-aminopyridin-3-yl)methyl)ureido)-N-(benzo[d][1,3]dioxol-4-ylmethyl)-N-isopropylacetamide] | 18.2% |  |  |
| CCOC(=O)CNC(=O)NCc1cc(C)on1 [Compound F526, ethyl 2-(3-((5-methylisoxazol-3-yl)methyl)ureido)acetate] |  | 21.2% |  |
| CCOC(=O)CNC(=O)NCc1nc2ccccc2[nH]1 [Compound F538, ethyl 2-(3-((1H-benzo[d]imidazol-2-yl)methyl)ureido)acetate] |  |  | inhibition at 100 µM (Cyclophilin A (CypA)): 15.5% |
| Nc1ccc(CNC(=O)NCC(=O)N2CCCO2)cn1 [Compound F585, 1-((6-aminopyridin-3-yl)methyl-3-(2-isoxazolidin-2-yl)-2-oxoethyl)urea] | 35.0% |  |  |
| Nc1ccc(CNC(=O)NCC(=O)N2CCCC2c2ccccn2)cn1 (centres unmarked) [Compound F586, 1-((6-aminopyridin-3-yl)methyl)-3-(2-oxo-2-(2-(pyridin-2-yl)pyrrolidin-1-yl)ethyl)urea] |  | 38.4% |  |
| 2-(3-(4-aminobenzyl)ureido)-N-2-phenyl-ethyl-N-methylacetamide [Compound F551] | 20.8% |  |  |
| Cc1noc(C2CCCN2C(=O)CNC(=O)NCc2ccc(N)nc2)n1 (centres unmarked) [Compound F593, 1-((6-aminopyridin-3-yl)methyl)-3-(2-(2-(3-methyl-1,2,4-oxadiazol-5-yl)pyrrolidin-1-yl)-2-oxoethyl)urea] |  | 23.4% |  |
| CCOC(=O)CNC(=O)NCc1ccc(N)nc1 [Compound F536, ethyl 2-(3-((6-aminopyridin-3-yl)methyl)ureido)acetate] |  | 47.6% |  |
| (S)-1-((6-aminopyridin-3-yl)methyl)-3-(2-oxo-2-(2-(pyridin-3-yl)pyrrolidin-1-yl)ethyl)urea [Compound F588] | 23.2% |  |  |
| CCOC(=O)CNC(=O)NCc1ccc(O)cc1O [Compound F572, ethyl 2-(3-(2,4-dihydroxybenzyl)ureido)acetate] |  | 27.6% |  |
| CCOC(=O)CNC(=O)NCc1ccc(O)cc1 [Compound F576, ethyl 2-(3-(4-hydroxybenzyl)ureido)acetate] |  | 18.4% |  |
| CCOC(=O)CNC(=O)NCc1cccc(-c2ncccn2)c1 [Compound F524] | 15.4% |  |  |
| COC(=O)[C@H]1CCCN1C(=O)CNC(=O)NCc1ccc(N)cc1 [Compound F558, (R)-methyl 1-(2-(3-(4-aminobenzyl)ureido)acetyl)pyrrolidine-2-carboxylate] |  | 25.9% |  |
| CCOC(=O)CNC(=O)NCc1cccc(C(F)(F)F)c1 [Compound F514, ethyl 2-(3-(3-trifluoromethylbenzyl)ureido)acetate] |  | 19.5% |  |
| CCOC(=O)CNC(=O)NCc1ccccc1-c1ccco1 [Compound F528] | 38.9% |  |  |
| CCOC(=O)CNC(=O)NCc1cccc2c1OCCO2 [Compound F525, ethyl 2-(3-((2,3-dihydrobenzo[b][1,4]dioxin-5-yl)methyl)ureido)acetate] |  | 21.6% |  |
| CN(C(=O)CNC(=O)NCc1ccc(N)nc1)c1ccc(F)cc1 [Compound F597, 2-(3-((6-aminopyridin-3-yl)methyl)ureido)-N-(4-fluorophenyl)-N-methylacetamide] |  | 46.3% |  |
| CCOC(=O)CNC(=S)NCc1ccc(N)nc1 [Compound F569, ethyl 2-(3-((6-aminopyridin-3-yl)methyl)thioureido)acetate] |  | 17.1% |  |
| Nc1ccc(CNC(=O)NCC(=O)NCc2cccc(-n3cncn3)c2)cc1 [Compound F562, 2-(3-(4-aminobenzyl)ureido)-N-(3-(1H,1,2,4-triazol-1-yl)benzyl)acetamide] | 28.0% |  |  |

| Compound | Inhibition (%) (Cyclophilin B (CypB)) | inhibition at 100 µM (Cyclophilin B (CypB)) | also measured |
| --- | --- | --- | --- |
| CCOC(=O)CNC(=O)NCc1ccc(N)c2ccccc12 [Compound F577, ethyl 2-(3-((4-aminonapht-1-yl)methyl)ureido)acetate] | 47.3% |  |  |
| CCOC(=O)CNC(=O)NCc1cccc2ccccc12 [Compound F490, ethyl 2-(3-((napht-1-yl)methyl)ureido)acetate] | 33.1% |  |  |
| CCN(OCc1ccccc1)C(=O)CNC(=O)NCc1ccc(N)nc1 [Compound F599, 2-(3-((6-aminopyridin-3-yl)methyl)ureido)-N-(benzyloxy)-N-ethylacetamide] |  | 71.8% |  |
| CCOC(=O)CNC(=O)NCc1ccc(F)cc1 [Compound F513, ethyl 2-(3-(4-fluorobenzyl)ureido)acetate] |  | 23.3% |  |
| Nc1ccc(CNC(=O)NCC(=O)N2CCC(O)CC2)cc1 [Compound F561, 1-(4-aminobenzyl)-3-(2-(4-hydroxy-piperidin-1-yl)-2-oxoethyl)urea] |  | 15.1% |  |
| Nc1ccc(CNC(=O)Nc2cnc3sccn3c2=O)cn1 [Compound F596, 1-((6-aminopyridin-3-yl)methyl)-3-(5-oxo-5H-thiazolo[3,2-c]pyrimidin-6-yl)urea] | 19.8% |  |  |
| Nc1ccc(CNC(=O)NCC(=O)NCc2cccc(CN3CCOCC3)c2)cc1 [Compound F559] | 21.9% |  |  |
| CCOC(=O)CNC(=O)NCc1cc(Cl)cc(Cl)c1 [Compound F520, ethyl 2-(3-(3,5-dichlorobenzyl)ureido)acetate] |  | 18.9% |  |
| COc1ccccc1C1CCCN1C(=O)CNC(=O)NCc1ccc(N)nc1 (centres unmarked) [Compound F587, 1-((6-aminopyridin-3-yl)methyl)-3-(2-(2-(2-methoxyphenyl)pyrrolidin-1-yl)-2-oxoethyl)urea] |  | 99% | IC50 (Cyclophilin B (CypB); CypB): 5.2 µM |
| COc1cccc(CNC(=O)CNC(=O)NCc2ccc(N)cc2)c1 [Compound F563, 2-(3-(4-aminobenzyl)ureido)-N-3-methoxybenzylacetamide] |  | 16.4% |  |
| Nc1ccc(CNC(=O)NCC(=O)N2CCOCC2)cn1 [Compound F594] | 37.0% |  |  |
| CCOC(=O)CNC(=O)NCc1c(F)cccc1NC(C)=O [Compound F565, ethyl 2-(3-(2-acetamido-6-fluorobenzyl)ureido)acetate] |  | 34.5% |  |
| Nc1ccc(CNC(=O)Nn2cnc3ccccc3c2=O)cc1 [Compound F600, 1-(4-aminobenzyl)-3-(4-oxoquinazolin-3(4H)-yl)urea] |  | 65.8% |  |
| CCOC(=O)CNC(=O)NCCNc1ccccc1 [Compound F515, ethyl 2-(3-(2-(phenylamino)ethyl)ureido)acetate] |  | 18.2% |  |
| Nc1ccc(CNC(=O)NCC(=O)N2CCCC(O)C2)cc1 (centres unmarked) [Compound F540, 1-(4-aminobenzyl)-3-(2-(3-hydroxy-piperidin-1-yl)-2-oxoethyl)urea] |  |  | inhibition at 100 µM (Cyclophilin A (CypA)): 32.6% |
| CN(C(=O)CNC(=O)NCc1ccc(N)nc1)C1CCCCC1 [Compound F595, 2-(3-((6-aminopyridin-3-yl)methyl)ureido)-N-cyclohexyl-N-methylacetamide] |  | 29.1% |  |
| CCOC(=O)CNC(=O)NCCc1ccc(O)cc1 [Compound F517, ethyl 2-(3-(4-hydroxyphenylethyl)ureido)acetate] |  | 20% |  |
| CSc1cccc(CN(C(=O)CNC(=O)NCc2ccc(N)nc2)C(C)C)c1 [Compound F592, 2-(3-((6-aminopyridin-3-yl)methyl)ureido)-N-isopropyl-N-(3-(methylthio)benzyl)acetamide] |  | 18.9% |  |
